Results as given in patent publication US20050222078A1, “Use of pyrimidine nucleotides for the treatment of affections of the peripheral nervous system” (priority 2002, published 2005).

Columns and labels:
[1] = system: traumatically affected peripheral nerves; conditions: Wistar rats, B. Wattig et al. 1991; cited from earlier work
patients with lumbago = assay: Clinical study of UMP versus placebo in patients with lumbago; type: in vivo
Method: In the following the effectivity of pyrimidine nucleotides for the treatment of affections of the peripheral nervous system as well as for the stimulation of the regeneration of nerves is described by example of uridine-5′-monophosphate (UMP) by example of the indication lumbago. 80 female as well as male patients, aged between 20 and 63 years, were separated randomly into two groups, one was treated with UMP and the other with placebo. The treatment ranged over four consecutive days, whereas the treatment could be terminated ahead of schedule as soon as the symptoms were ameliorating in a way, that a further treatment was needless. Applied was once per day into a vein of the arm an injection solution of 19.349 mg UMP (this corresponds to a mass of 12.834 mg uridine) in 250 ml of physiological sodium chloride solution over a time period of 30 minutes. The comparison group received as placebo only the 250 ml of physiological sodium chloride solution without an active agent. For this clinical study only patients were chosen with a pain intensity of at least 40 mm on the VAS scale (VAS: visual analogue scale). The pain intensity is given on the linear VAS scale in the unit “mm” and was determined by prompting the patients to mark on the linear VAS scale the point, which corresponded to their respective pain intensity. Thereby a non sensible pain was given with the value 0 mm and the possibly maximum pain with the value 100 mm. The pain intensity of the patients was continuously checked, whereas the patients also had to indicate the respective duration of the single pain periods. Table 1 proves, that already after a short time period after the initial injection the pain intensity strongly decreases in the resting and moving state in the case of the UMP patient group. The finger-floor distance represents a measure for the mobility, i.e. for the grade of capability to bend the back, and is given in the unit “cm”, whereas the distance between the finger tip in the case of outstretched arms and the curvature in the case of maximal possible bending of the back was measured.

[2] = decrease in the UMP patient group
[3] = decrease of pain in the UMP patient group, VAS
[4] = difference of decrease, UMP versus placebo group

| SMILES | Filament area of nerve filaments (myelin and axon areas) [1] | Presence of myogelosis (patients with lumbago; UMP patient group, 24 h after inj., base line 100%) | Pain during resting state (patients with lumbago; VAS scale, average of UMP patient group, 24 h after inj., 19.349 mg UMP i.v. once per day, base line 60.3) | Pain during movement (patients with lumbago; VAS scale, average of UMP patient group, 24 h after inj., base line 76.1) | Daily duration of pain (patients with lumbago; average of UMP patient group, 24 h after inj., base line 15.8) | Finger-floor distance (patients with lumbago; average of UMP patient group, 24 h after inj., base line 43.8) | Δ UMP, Daily duration of pain (patients with lumbago; [2]) | Δ UMP, Finger-floor distance (patients with lumbago; [2]) | Δ UMP, Pain during movement (patients with lumbago; [3]) | Δ UMP, Pain during resting state (patients with lumbago; [3]) | Δ UMP − Δ Placebo, Daily duration of pain (patients with lumbago; [4]) | Δ UMP − Δ Placebo, Finger-floor distance (patients with lumbago; [4]) | Δ UMP − Δ Placebo, Pain during movement (patients with lumbago; [4]) | Δ UMP − Δ Placebo, Pain during resting state (patients with lumbago; [4]) | Absolute values of test parameters (pain, daily duration of pain, finger-floor distance) versus placebo group (patients with lumbago; during the further three days) | Decrease in pain compared to placebo patients (patients with lumbago; within the initial 24 h after the first injection) |
| --- | --- | --- | --- | --- | --- | --- | --- | --- | --- | --- | --- | --- | --- | --- | --- | --- |
| Nc1ccn([C@@H]2O[C@H](COP(=O)(O)O)[C@@H](O)[C@H]2O)c(=O)n1 [CMP, cytidine-5′-monophosphate] | no comparable results |  |  |  |  |  |  |  |  |  |  |  |  |  |  |  |
| O=c1ccn([C@@H]2O[C@H](COP(=O)(O)O)[C@@H](O)[C@H]2O)c(=O)[nH]1 [UMP, uridine-5′-monophosphate] | no comparable results | 90% | 46.2 mm | 56.9 mm | 10.7 h | 32.5 cm | -4.3 h | −10.1 cm | −17.9 mm | −12.8 mm | -1.4 h | −2.7 cm | −6.8 mm | −3.4 mm | always below the corresponding absolute values for the placebo group | clear decrease in pain |
